Measured values: US7592372B2, “Liquid drug preparations” (Hisamitsu Pharmaceutical Co., Inc., priority 2001, dated 2009)

Experiments:
Format in all cases: physicochemical
[1] = Overall stability of liquid fudostein preparations after preservation at 70° C. for seven days; details: 8 g fudostein/100 ml
Procedure: (§1) Aqueous solutions containing 8 g of fudostein were adjusted to pH 2-7 using an appropriate amount of phosphoric acid or sodium hydroxide as shown in Table 1. Purified water was added to make the total amount of each solution 100 ml, thereby obtaining liquid fudostein preparations with different pHs. The liquid preparations were preserved at 70° C. for seven days to examine the residual ratio of fudostein in the solutions, color change, and sedimentation. The residual ratio of fudostein was calculated from the amount of fudostein determined by quantitative analysis using HPLC. The color change and sedimentation were evaluated by naked eye observation and rated according to the following standard. Aqueous solutions containing 8 g of fudostein and D-sorbitol in the amounts shown in Table 5 were adjusted to pH 3.5 by adding phosphoric acid. Purified water was added to make the total amount of each solution 100 ml, thereby obtaining liquid fudostein preparations.

[2] = Residual ratio of fudostein (HPLC) after preservation at 70° C. for seven days
Procedure: as §1, with “standard.” for “standard. Aqueous solutions containing 8 g of fudostein and D-sorbitol in the amounts shown in Table 5 were adjusted to pH 3.5 by adding phosphoric acid. Purified water was added to make the total amount of each solution 100 ml, thereby obtaining liquid fudostein preparations.”
(§2) Purified water was added to make the total amount of each solution 100 ml, thereby obtaining liquid fudostein preparations. […]
(§3) Aqueous solutions containing 8 g of fudostein and D-sorbitol in the amounts shown in Table 5 were adjusted to pH 3.5 by adding phosphoric acid. Purified water was added to make the total amount of each solution 100 ml, thereby obtaining liquid fudostein preparations.

[3] = Sedimentation by naked eye observation after preservation at 70° C. for seven days
Procedure: as §1, with “standard. […] (Results)” for “standard.”

[4] = Color change by naked eye observation after preservation at 70° C. for seven days; also: key: −: There was no color change in the liquid preparation; ±: There was slight color change in the liquid preparation; +: There was color change in the liquid preparation; ++: There was remarkable color change in the liquid preparation
Procedure: as §1, with “standard.” for “standard. Aqueous solutions containing 8 g of fudostein and D-sorbitol in the amounts shown in Table 5 were adjusted to pH 3.5 by adding phosphoric acid. Purified water was added to make the total amount of each solution 100 ml, thereby obtaining liquid fudostein preparations.”
Evaluation standard for color change:
as §2, §3

[5] = 8 g fudostein/100 ml aqueous solution, pH 2.0, 70° C. for seven days
[6] = 8 g fudostein/100 ml aqueous solution, pH 2.5, 70° C. for seven days
[7] = 8 g fudostein/100 ml aqueous solution, pH 3.0, 70° C. for seven days
[8] = 8 g fudostein/100 ml aqueous solution, pH 3.5, 70° C. for seven days
[9] = 8 g fudostein/100 ml aqueous solution, pH 4.0, 70° C. for seven days
[10] = 8 g fudostein/100 ml aqueous solution, pH 5.0, 70° C. for seven days
[11] = 8 g fudostein/100 ml aqueous solution, pH 6.0, 70° C. for seven days
[12] = 8 g fudostein/100 ml aqueous solution, pH 7.0, 70° C. for seven days
[13] = 8 g fudostein/100 ml, D-sorbitol 0%, pH 3.5, 70° C. for seven days
[14] = 8 g fudostein/100 ml, D-sorbitol 10%, pH 3.5, 70° C. for seven days
[15] = 8 g fudostein/100 ml, D-sorbitol 20%, pH 3.5, 70° C. for seven days
[16] = 8 g fudostein/100 ml, D-sorbitol 30%, pH 3.5, 70° C. for seven days
[17] = 8 g fudostein/100 ml, D-sorbitol 40%, pH 3.5, 70° C. for seven days
[18] = 8 g fudostein/100 ml, D-sorbitol 50%, pH 3.5, 70° C. for seven days

In the case of N[C@@H](CSCCCO)C(=O)O [fudostein, S-(3-hydroxypropyl)-L-cysteine], the “pH at which the liquid fudostein preparation remains stable” value ([1]; 70° C. for seven days) is reported as no more than 5.0, the “sugar alcohol concentration at which liquid fudostein preparations are stable” value ([1]; D-sorbitol, pH 3.5, 70° C. for seven days) is reported as no more than 40% and the “Analytical value Residual ratio (%)” value [2, 5] is reported as 99.9%. The “Analytical value Residual ratio (%)” value [2, 6] was 100.0%, the “Analytical value Residual ratio (%)” value [2, 7] was 100.7% and the “Analytical value Residual ratio (%)” value [2, 8] was 100.3%. For the same compound, the “Analytical value Residual ratio (%)” value [2, 9] was 101.1%, the “Analytical value Residual ratio (%)” value [2, 10] was 100.1% and the “Analytical value Residual ratio (%)” value [2, 11] was 100.4%. The “Analytical value Residual ratio (%)” value [2, 12] was 99.4%, the “Analytical value Residual ratio (%)” value ([2]; 8 g fudostein/100 ml, D-sorbitol 0%, pH 3.5 (phosphoric acid), 70° C. for seven days) was 99.6% and the “Analytical value Residual ratio (%)” value ([2]; 8 g fudostein/100 ml, D-sorbitol 10%, pH 3.5 (phosphoric acid), 70° C. for seven days) was 99.4%. The “Analytical value Residual ratio (%)” value ([2]; 8 g fudostein/100 ml, D-sorbitol 20%, pH 3.5 (phosphoric acid), 70° C. for seven days) was 99.0%, the “Analytical value Residual ratio (%)” value ([2]; 8 g fudostein/100 ml, D-sorbitol 30%, pH 3.5 (phosphoric acid), 70° C. for seven days) was 99.3% and the “Analytical value Residual ratio (%)” value ([2]; 8 g fudostein/100 ml, D-sorbitol 40%, pH 3.5 (phosphoric acid), 70° C. for seven days) was 99.9%. The “Analytical value Residual ratio (%)” value ([2]; 8 g fudostein/100 ml, D-sorbitol 50%, pH 3.5 (phosphoric acid), 70° C. for seven days) was 100.4%, the Sedimentation [3, 5] was “± (Slight sedimentation was observed.)” and the Sedimentation [3, 6] was “± (Slight sedimentation was observed.)”. The Sedimentation [3, 7] was “−”, the Sedimentation [3, 8] was “−” and the Sedimentation [3, 9] was “−”. For the same compound, the Sedimentation [3, 10] was “−”, the Sedimentation [3, 11] was “−” and the Sedimentation [3, 12] was “−”. For the same compound, the Sedimentation [3, 13] was “−”, the Sedimentation [3, 14] was “−” and the Sedimentation [3, 15] was “−”. For the same compound, the Sedimentation [3, 16] was “−”, the Sedimentation [3, 17] was “+ (Sedimentation was observed.)” and the Sedimentation [3, 18] was “+ (Sedimentation was observed.)”. For the same compound, the Color change [4, 5] was “−”, the Color change [4, 6] was “−” and the Color change [4, 7] was “−”. The Color change [4, 8] was “−”, the Color change [4, 9] was “−” and the Color change [4, 10] was “±”. For the same compound, the Color change [4, 11] was “+”, the Color change [4, 12] was “++” and the Color change [4, 13] was “−”. For the same compound, the Color change [4, 14] was “−”, the Color change [4, 15] was “−” and the Color change [4, 16] was “−”. For the same compound, the Color change [4, 17] was “±” and the Color change [4, 18] was “+”.
